According to ChEMBL document CHEMBL5584244, “Discovery of novel pyrrolo[2,1-c][1,4]benzodiazepine-3,11-dione (PBD) derivatives as selective HDAC6 inhibitors for the efficient treatment of idiopathic pulmonary fibrosis (IPF) in vitro and in vivo” (Eur J Med Chem, 2024):
Blank lines part the entries; values can stand above or below the molecule they belong to. Activity calls are given as the source filed them. No cut-off for these calls is given here.

Legend:
[1] = molecular target: T1, Protein deacetylase HDAC6 (Homo sapiens, UniProt Q9UBN7); test: Inhibition of recombinant human full length HDAC6 using Boc-Lys (Ac)-AMC as substrate incubated for 120 mins by fluorescence analysis
T1 sequence (Q9UBN7 whole entry): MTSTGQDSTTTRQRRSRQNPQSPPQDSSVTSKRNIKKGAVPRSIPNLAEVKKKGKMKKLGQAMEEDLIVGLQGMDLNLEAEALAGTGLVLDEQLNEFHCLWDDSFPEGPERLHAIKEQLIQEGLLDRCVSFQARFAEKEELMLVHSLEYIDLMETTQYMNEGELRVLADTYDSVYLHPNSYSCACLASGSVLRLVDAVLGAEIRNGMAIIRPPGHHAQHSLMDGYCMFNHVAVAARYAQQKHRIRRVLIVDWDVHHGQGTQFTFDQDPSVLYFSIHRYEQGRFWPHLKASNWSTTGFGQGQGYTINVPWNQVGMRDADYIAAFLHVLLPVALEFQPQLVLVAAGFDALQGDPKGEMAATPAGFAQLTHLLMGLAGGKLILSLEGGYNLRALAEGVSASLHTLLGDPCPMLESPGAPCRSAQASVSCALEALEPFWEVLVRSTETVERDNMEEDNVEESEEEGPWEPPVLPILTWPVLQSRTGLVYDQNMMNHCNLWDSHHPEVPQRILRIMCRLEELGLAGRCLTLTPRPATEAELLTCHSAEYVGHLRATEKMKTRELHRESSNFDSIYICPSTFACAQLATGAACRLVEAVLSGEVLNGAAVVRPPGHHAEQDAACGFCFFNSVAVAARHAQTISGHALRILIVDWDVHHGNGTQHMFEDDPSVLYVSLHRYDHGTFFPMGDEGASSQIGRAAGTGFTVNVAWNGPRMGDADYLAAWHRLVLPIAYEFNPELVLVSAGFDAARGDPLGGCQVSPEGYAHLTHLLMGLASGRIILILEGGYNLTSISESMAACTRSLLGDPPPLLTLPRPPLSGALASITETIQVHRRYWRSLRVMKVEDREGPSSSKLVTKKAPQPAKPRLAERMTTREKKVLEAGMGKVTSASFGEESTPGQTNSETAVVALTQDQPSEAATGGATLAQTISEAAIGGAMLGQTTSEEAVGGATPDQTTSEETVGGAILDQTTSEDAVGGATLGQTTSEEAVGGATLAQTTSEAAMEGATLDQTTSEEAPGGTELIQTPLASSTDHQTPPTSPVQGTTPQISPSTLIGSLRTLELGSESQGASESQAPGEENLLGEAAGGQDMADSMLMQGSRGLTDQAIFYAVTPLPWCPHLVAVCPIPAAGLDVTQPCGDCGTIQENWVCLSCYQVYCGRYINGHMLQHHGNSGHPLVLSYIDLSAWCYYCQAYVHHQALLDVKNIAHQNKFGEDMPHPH

[2] = system: Mus musculus; test: Anti-pulmonary fibrosis activity in bleomycin-induced C57BL/6 mouse model of pulmonary fibrosis assessed as increase in body weight at 100 mg/kg, ip for 3 weeks; type: functional, organism-based
[3] = system: Mus musculus; test: Anti-pulmonary fibrosis activity in bleomycin-induced C57BL/6 mouse model of pulmonary fibrosis assessed as decrease structural damage in lung at 100 mg/kg, ip for 3 weeks by H and E staining based fluorescence microscopic analysis; type: functional, organism-based
[4] = system: Mus musculus; test: Anti-pulmonary fibrosis activity in bleomycin-induced C57BL/6 mouse model of pulmonary fibrosis assessed as decrease in collapse of the alveolar cavity in lung at 100 mg/kg, ip for 3 weeks by H and E staining based fluorescence microscopic analysis; type: functional, organism-based
[5] = system: Mus musculus; test: Anti-pulmonary fibrosis activity in bleomycin-induced C57BL/6 mouse model of pulmonary fibrosis assessed as decrease in disturbance of alveolar structure in lung at 100 mg/kg, ip for 3 weeks by H and E staining based fluorescence microscopic analysis; type: functional, organism-based
[6] = system: Mus musculus; test: Anti-pulmonary fibrosis activity in bleomycin-induced C57BL/6 mouse model of pulmonary fibrosis assessed as decrease in thickening of the alveolar wall in lung at 100 mg/kg, ip for 3 weeks by H and E staining based fluorescence microscopic analysis; type: functional, organism-based
[7] = system: Mus musculus; test: Anti-pulmonary fibrosis activity in bleomycin-induced C57BL/6 mouse model of pulmonary fibrosis assessed as decrease in inflammatory cell infiltration in lung at 100 mg/kg, ip for 3 weeks by H and E staining based fluorescence microscopic analysis; type: functional, organism-based
[8] = system: Mus musculus; test: Anti-pulmonary fibrosis activity in bleomycin-induced C57BL/6 mouse model of pulmonary fibrosis assessed as decrease in fibrosis scars in lung at 100 mg/kg, ip for 3 weeks by H and E staining based fluorescence microscopic analysis; type: functional, organism-based
[9] = system: Mus musculus; test: Anti-pulmonary fibrosis activity in bleomycin-induced C57BL/6 mouse model of pulmonary fibrosis assessed as decrease in structural damage in lung at 100 mg/kg, ip for 3 weeks by Masson trichrome staining based microscopic analysis; type: functional, organism-based
[10] = system: Mus musculus; test: Anti-pulmonary fibrosis activity in bleomycin-induced C57BL/6 mouse model of pulmonary fibrosis assessed as decrease in collapse of the alveolar cavity in lung at 100 mg/kg, ip for 3 weeks by Masson trichrome staining based microscopic analysis; type: functional, organism-based
[11] = system: Mus musculus; test: Anti-pulmonary fibrosis activity in bleomycin-induced C57BL/6 mouse model of pulmonary fibrosis assessed as decrease in thickening of the alveolar wall in lung at 100 mg/kg, ip for 3 weeks by Masson trichrome staining based microscopic analysis; type: functional, organism-based
[12] = system: Mus musculus; test: Anti-pulmonary fibrosis activity in bleomycin-induced C57BL/6 mouse model of pulmonary fibrosis assessed as decrease in collagen level in lung at 100 mg/kg, ip for 3 weeks by Masson trichrome staining based microscopic analysis; type: functional, organism-based
[13] = molecular target: Histone deacetylase 1 (Homo sapiens, UniProt Q13547); test: Inhibition of C-terminal His6/Flag-tagged recombinant human full length HDAC1 using Boc-Lys (Ac)-AMC as substrate incubated for 120 mins by fluorescence analysis
[14] = molecular target: Histone deacetylase 2 (Homo sapiens, UniProt Q92769); test: Inhibition of recombinant human full length HDAC2 using Boc-Lys (Ac)-AMC as substrate incubated for 120 mins by fluorescence analysis
[15] = molecular target: Histone deacetylase 4 (Homo sapiens, UniProt P56524); test: Inhibition of recombinant human HDAC4 using Boc-Lys (Ac)-AMC as substrate incubated for 120 mins by fluorescence analysis
[16] = molecular target: T2, Histone deacetylase 7 (Homo sapiens, UniProt Q8WUI4); test: Inhibition of N-terminal GST-tagged recombinant human HDAC7 (518 to end residues) expressed in baculovirus expression system using Boc-Lys (Tfa)-AMC as substrate incubated for 120 mins by fluorescence analysis
T2 sequence (Q8WUI4 whole entry): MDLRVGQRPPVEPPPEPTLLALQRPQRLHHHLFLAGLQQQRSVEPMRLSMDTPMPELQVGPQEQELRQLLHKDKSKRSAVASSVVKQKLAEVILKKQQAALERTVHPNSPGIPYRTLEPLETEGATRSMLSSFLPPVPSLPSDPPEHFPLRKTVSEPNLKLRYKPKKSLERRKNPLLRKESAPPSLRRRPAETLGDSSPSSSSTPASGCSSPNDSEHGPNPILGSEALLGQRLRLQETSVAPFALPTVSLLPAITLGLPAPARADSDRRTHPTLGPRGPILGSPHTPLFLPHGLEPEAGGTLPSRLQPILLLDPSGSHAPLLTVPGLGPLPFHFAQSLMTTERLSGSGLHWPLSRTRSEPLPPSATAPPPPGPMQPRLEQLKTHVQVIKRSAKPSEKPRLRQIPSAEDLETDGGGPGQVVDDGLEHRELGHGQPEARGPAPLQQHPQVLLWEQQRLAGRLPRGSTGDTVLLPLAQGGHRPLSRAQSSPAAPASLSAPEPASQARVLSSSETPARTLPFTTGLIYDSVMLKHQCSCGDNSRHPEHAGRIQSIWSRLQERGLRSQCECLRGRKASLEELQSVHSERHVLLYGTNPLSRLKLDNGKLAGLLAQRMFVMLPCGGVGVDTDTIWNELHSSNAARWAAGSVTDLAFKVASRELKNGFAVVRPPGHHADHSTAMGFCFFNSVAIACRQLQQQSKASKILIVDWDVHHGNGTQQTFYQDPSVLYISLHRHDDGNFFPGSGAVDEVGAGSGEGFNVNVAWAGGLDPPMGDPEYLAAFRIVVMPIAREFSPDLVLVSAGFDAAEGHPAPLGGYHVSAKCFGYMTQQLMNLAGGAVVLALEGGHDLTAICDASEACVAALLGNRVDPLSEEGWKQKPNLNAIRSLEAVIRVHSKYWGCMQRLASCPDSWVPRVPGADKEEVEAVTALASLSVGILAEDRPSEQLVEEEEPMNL

[17] = molecular target: T3, Polyamine deacetylase HDAC10 (Homo sapiens, UniProt Q969S8); test: Inhibition of N-terminal FLAG-tagged recombinant human HDAC10 (2 to 631 residues) expressed in baculovirus sf9 insect cells expression system using Boc-Lys (Ac)-AMC as substrate incubated for 120 mins by fluorescence analysis
T3 sequence (Q969S8 whole entry): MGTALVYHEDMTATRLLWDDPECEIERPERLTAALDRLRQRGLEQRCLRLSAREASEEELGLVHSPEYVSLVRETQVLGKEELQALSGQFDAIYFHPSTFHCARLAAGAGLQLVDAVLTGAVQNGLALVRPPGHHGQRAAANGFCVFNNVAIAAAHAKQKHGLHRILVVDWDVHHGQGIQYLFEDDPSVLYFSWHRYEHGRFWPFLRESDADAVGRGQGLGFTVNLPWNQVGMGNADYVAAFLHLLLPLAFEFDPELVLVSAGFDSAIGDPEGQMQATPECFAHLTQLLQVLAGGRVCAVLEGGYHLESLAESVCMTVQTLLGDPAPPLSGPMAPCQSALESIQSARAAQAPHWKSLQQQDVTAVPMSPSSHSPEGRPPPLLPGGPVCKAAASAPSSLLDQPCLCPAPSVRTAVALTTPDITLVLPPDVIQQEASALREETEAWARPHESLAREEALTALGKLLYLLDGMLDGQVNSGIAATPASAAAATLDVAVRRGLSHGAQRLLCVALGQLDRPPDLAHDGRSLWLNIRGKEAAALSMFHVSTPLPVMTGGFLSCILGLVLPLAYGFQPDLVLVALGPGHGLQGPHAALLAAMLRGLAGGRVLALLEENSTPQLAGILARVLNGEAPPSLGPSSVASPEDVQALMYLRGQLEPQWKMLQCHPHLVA

[18] = molecular target: T4, Histone deacetylase 11 (Homo sapiens, UniProt Q96DB2); test: Inhibition of recombinant human full length HDAC11 using Boc-Lys (Tfa)-AMC as substrate incubated for 120 mins by fluorescence analysis
T4 sequence (Q96DB2 whole entry): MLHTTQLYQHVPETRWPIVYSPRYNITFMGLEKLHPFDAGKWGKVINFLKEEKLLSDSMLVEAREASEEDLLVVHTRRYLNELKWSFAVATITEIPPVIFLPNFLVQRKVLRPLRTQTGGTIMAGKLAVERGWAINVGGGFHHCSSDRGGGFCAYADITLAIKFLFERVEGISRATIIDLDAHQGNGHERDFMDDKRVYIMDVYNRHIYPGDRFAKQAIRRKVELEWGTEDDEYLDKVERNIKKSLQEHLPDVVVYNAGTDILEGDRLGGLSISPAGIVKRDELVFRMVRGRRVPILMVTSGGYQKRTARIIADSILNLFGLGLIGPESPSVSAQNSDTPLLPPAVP

[19] = organism: Homo sapiens; test: Selectivity index, ratio IC50 for C-terminal His6/Flag-tagged recombinant human full length HDAC1 to IC50 for inhibition of recombinant human full length HDAC6
[20] = Half life in human liver microsomes at 100 uM by LC-MS/MS analysis; type: ADME, Microsome

Sequence of Histone deacetylase 2 (Q92769 whole entry): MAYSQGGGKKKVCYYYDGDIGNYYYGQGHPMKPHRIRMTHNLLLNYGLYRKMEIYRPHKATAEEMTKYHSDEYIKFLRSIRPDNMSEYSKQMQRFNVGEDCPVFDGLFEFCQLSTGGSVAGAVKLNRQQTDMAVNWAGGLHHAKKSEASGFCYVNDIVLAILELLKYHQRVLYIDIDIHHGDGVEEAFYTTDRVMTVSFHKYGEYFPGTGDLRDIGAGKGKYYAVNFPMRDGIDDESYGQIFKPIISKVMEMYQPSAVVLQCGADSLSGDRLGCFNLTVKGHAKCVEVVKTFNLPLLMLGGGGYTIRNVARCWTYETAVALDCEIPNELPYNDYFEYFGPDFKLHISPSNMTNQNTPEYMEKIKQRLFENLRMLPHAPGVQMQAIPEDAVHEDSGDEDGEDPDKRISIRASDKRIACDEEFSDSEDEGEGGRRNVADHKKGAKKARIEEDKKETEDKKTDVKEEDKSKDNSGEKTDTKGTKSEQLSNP
Sequence of Histone deacetylase 1 (Q13547 whole entry): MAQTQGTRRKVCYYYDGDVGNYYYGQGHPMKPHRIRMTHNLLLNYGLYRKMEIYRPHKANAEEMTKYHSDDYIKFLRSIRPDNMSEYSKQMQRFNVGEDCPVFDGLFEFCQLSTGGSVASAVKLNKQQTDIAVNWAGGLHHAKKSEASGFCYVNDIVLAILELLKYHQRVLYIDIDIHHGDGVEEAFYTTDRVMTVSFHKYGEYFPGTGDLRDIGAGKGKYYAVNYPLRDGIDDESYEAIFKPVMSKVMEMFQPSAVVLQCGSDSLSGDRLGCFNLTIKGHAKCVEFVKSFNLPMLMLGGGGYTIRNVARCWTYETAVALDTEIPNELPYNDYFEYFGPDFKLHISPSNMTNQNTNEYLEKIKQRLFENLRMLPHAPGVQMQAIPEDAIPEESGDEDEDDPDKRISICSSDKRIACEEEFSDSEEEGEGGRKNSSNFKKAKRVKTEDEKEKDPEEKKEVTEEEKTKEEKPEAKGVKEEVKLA
Sequence of Histone deacetylase 4 (P56524 whole entry): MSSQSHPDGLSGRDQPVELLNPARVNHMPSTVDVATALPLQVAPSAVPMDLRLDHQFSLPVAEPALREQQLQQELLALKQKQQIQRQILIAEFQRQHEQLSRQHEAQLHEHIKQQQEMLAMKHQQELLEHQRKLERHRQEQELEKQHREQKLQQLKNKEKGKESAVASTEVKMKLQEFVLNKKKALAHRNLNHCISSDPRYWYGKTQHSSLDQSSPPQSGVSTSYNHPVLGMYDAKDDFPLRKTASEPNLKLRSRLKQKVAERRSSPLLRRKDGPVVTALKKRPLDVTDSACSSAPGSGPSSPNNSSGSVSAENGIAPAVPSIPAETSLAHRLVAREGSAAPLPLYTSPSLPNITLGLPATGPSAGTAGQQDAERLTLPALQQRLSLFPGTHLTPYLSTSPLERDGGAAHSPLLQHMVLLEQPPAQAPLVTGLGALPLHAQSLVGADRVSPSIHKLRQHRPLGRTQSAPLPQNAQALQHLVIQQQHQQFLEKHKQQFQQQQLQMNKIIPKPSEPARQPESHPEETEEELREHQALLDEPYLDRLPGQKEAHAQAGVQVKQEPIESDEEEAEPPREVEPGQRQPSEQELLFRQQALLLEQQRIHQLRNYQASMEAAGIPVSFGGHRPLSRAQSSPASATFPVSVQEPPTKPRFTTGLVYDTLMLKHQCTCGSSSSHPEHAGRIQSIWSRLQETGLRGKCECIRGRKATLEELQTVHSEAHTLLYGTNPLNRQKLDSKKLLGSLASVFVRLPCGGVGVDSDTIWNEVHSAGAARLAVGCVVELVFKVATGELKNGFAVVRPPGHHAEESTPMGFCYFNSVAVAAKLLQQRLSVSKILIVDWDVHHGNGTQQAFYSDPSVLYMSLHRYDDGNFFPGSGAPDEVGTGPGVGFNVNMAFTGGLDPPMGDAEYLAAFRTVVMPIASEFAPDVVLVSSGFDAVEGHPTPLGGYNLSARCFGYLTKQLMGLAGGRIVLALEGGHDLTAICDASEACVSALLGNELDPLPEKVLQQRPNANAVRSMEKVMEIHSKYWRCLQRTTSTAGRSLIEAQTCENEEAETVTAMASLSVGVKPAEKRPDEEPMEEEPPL

SMILES: Cc1ccc(=O)n(-c2ccccc2)c1
Activity [2]: Active | Activity [3]: Active | Activity [4]: Active | Activity [5]: Active | Activity [6]: Active | Activity [7]: Active | Activity [8]: Active | Activity [9]: inactive | Activity [10]: inactive | Activity [11]: inactive | Activity [12]: Active

SMILES: O=C(Cc1ccc(CN2C(=O)[C@@H]3CCCN3Cc3ccccc32)cc1)NO
IC50 [1]: 288 nM

SMILES: COc1cc2c(cc1O)CN1C(=O)CC[C@H]1C(=O)N2Cc1cccc(C(=O)NO)c1
IC50 [1]: 296 nM

SMILES: O=C(NO)c1cccc(CN2C(=O)[C@@H]3CCCN3Cc3ccccc32)c1
IC50 [1]: > 300 nM

SMILES: O=C(O)Cc1ccccc1Nc1c(Cl)cccc1Cl [DICLOFENAC]
half-life at 100 µM [20]: 5.3 min

Further lines, results first:

IC50 [1]: 204 nM
SMILES: COc1cc2c(cc1OCc1ccccc1)CN1C(=O)CC[C@H]1C(=O)N2Cc1ccccc1C(=O)NO

IC50 [1]: 8.45 nM | IC50 [13]: 437 nM | IC50 [14]: 2680 nM | IC50 [15]: 499 nM | IC50 [16]: 731 nM | IC50 [17]: 961 nM | IC50 [18]: > 50000 nM | Ratio IC50 [19]: 51.7
SMILES: O=C(CCCCCN1C(=O)[C@@H]2CCCN2Cc2ccccc21)NO

IC50 [1]: 279 nM
SMILES: COc1cc2c(cc1O)CN1C(=O)CC[C@H]1C(=O)N2Cc1ccccc1C(=O)NO

IC50 [1]: 181 nM
SMILES: COc1cc2c(cc1OCc1ccccc1)CN1C(=O)CC[C@H]1C(=O)N2Cc1cccc(C(=O)NO)c1

IC50 [1]: 13.5 nM
SMILES: COc1cc2c(cc1O)CN1C(=O)CC[C@H]1C(=O)N2CCCCCCC(=O)NO

IC50 [1]: 126 nM
SMILES: COc1cc2c(cc1O)CN1C(=O)CC[C@H]1C(=O)N2Cc1ccc(C(=O)NO)cc1
